Assay type in all cases: functional
One test has as its system Enterococcus faecium. Briefly: In vitro antimicrobial activity against Enterococcus faecium GC 1182 strain. Conditions: Enterococcus faecium; read-out: MIC.
The subject of test [1] is Escherichia coli. Briefly: In vitro antimicrobial activity against Escherichia coli ATCC 25922 strain.
Test [2] deals with Acinetobacter calcoaceticus. Briefly: In vitro antimicrobial activity against Acinetobacter calcoaceticus GC 756 strain.
Test [3] has as its system Mus musculus. Briefly: Tested for oral activity against Escherichia coli #311 infection in mice after single subcutaneous dose(SSC).
The species named for test [4] is Mus musculus. As to the kind of experiment: animal or person. Conditions: Mus musculus, po; read-out: ED50.
Description: Tested for oral activity against Escherichia coli #311 infection in mice after single oral dose(SOD)
For a further test, the system named is Enterococcus faecalis. As to the kind of experiment: In vitro antimicrobial activity against Enterococcus faecalis GC 842 strain. Conditions: Enterococcus faecalis; read-out: MIC.
The subject of test [5] is Staphylococcus aureus. As to the kind of experiment: In vitro antimicrobial activity against Staphylococcus aureus GC 2220 strain. Conditions: Staphylococcus aureus; read-out: MIC.
Another test has as its system Morganella morganii. As to the kind of experiment: In vitro antimicrobial activity against Morganella morganii GC 2213 strain. Conditions: Morganella morganii; read-out: MIC.
Test [6] relates to Escherichia coli. Briefly: In vitro antimicrobial activity against Escherichia coli GC 2205 strain.
Test [7] relates to Pseudomonas aeruginosa. As to the kind of experiment: In vitro antimicrobial activity against Pseudomonas aeruginosa GC 1544 strain. Conditions: Pseudomonas aeruginosa; read-out: MIC.
In test [8] the test system is Escherichia coli. As to the kind of experiment: In vitro antimicrobial activity against Escherichia coli GC 1792 strain. Conditions: Escherichia coli; read-out: MIC.
Test [9] concerns Stenotrophomonas maltophilia. As to the kind of experiment: In vitro antimicrobial activity against Xanthomonas maltophilia GC 562 strain.
The test system of a further test is Citrobacter freundii. As to the kind of experiment: In vitro antimicrobial activity against Citrobacter freundii GC 2211 strain. Conditions: Citrobacter freundii; read-out: MIC.
Test [10] concerns Staphylococcus aureus. Briefly: In vitro antimicrobial activity against Staphylococcus aureus ATCC 29213 strain.
The subject of another test is Enterobacter cloacae. Briefly: In vitro antimicrobial activity against Enterobacter cloacae GC 2209 strain.
Test [11] concerns Pseudomonas aeruginosa. Briefly: In vitro antimicrobial activity against Pseudomonas aeruginosa ATCC 27853 strain. Conditions: Pseudomonas aeruginosa, ATCC 27853; read-out: MIC.
The nature of test [12]: Ratio of ED50 of single oral dose to ED50 of single subcutaneous dose against Staphylococcus aureus smith infection in mice.
Test [13] relates to Mus musculus. As to the kind of experiment: Tested for oral activity against Staphylococcus aureus smith infection in mice after single subcutaneous dose(SSC); 0.06-0.21.
Test [14] deals with Mus musculus. Briefly: Tested for oral activity against Staphylococcus aureus smith infection in mice after single oral dose(SOD); 0.83-1.7.
Test [15] concerns Mus musculus. Briefly: Tested for oral activity against Staphylococcus aureus smith infection in mice after single subcutaneous dose(SSC); 0.1-0.21.
Test [16] has as its system Mus musculus. Briefly: Tested for oral activity against Staphylococcus aureus smith infection in mice after single subcutaneous dose(SSC); 0.42-0.83.
Test [17] concerns Mus musculus. Briefly: Tested for oral activity against Staphylococcus aureus smith infection in mice after single oral dose(SOD). Conditions: Mus musculus, po; read-out: ED50.
Test [18] can be described thus: Ratio of ED50 of single oral dose to ED50 of single subcutaneous dose against Staphylococcus aureus smith infection in mice; 16-8.
The subject of test [19] is Mus musculus. Briefly: Tested for oral activity against Escherichia coli #311 infection in mice after single subcutaneous dose(SSC); 0.5-1.
The subject of test [20] is Mus musculus. Briefly: Tested for oral activity against Staphylococcus aureus smith infection in mice after single oral dose(SOD); 4-8.
Test [21] concerns Mus musculus. As to the kind of experiment: Tested for oral activity against Staphylococcus aureus smith infection in mice after single subcutaneous dose(SSC); 0.12-0.25.
Test [22] concerns Mus musculus. Briefly: Tested for oral activity against Staphylococcus aureus smith infection in mice after single subcutaneous dose(SSC).
Test [23] is filed under the species Mus musculus. As to the kind of experiment: animal or person. Conditions: Mus musculus; read-out: ED50.
The mark [24] stands for this setting: Acinetobacter calcoaceticus, read-out: MIC.

In brackets after ≈: the same amount, converted by molar mass.

The MIC is the lowest concentration that inhibits growth of the organism. Broadly, the ED50 is the dose at which the effect has come halfway, by size or by number of responders. `C[C@H]1C(S[C@@H]2CCO[C@@H]2CNC(=O)[C@@H](N)Cc2ccccc2)=C(C(=O)O)N2C(=O)[C@H]([C@@H](C)O)C12` (some centres undefined): the minimal inhibitory concentration (MIC) was 128 µg/mL (≈ 261 µM) with Enterococcus faecium; 0.5 µg/mL (≈ 1.02 µM) against Escherichia coli [1]; 32 µg/mL (≈ 65.4 µM) in test [2] (setting [24]); 1 µg/mL (≈ 2.04 µM) in the test on Enterococcus faecalis; 8 µg/mL (≈ 16.3 µM) in the test with Staphylococcus aureus [5]; 2 µg/mL (≈ 4.09 µM) in the test with Morganella morganii. Besides, the minimal inhibitory concentration (MIC) in the test on Escherichia coli [6] is 0.06 µg/mL (≈ 0.123 µM); in the test on Pseudomonas aeruginosa [7], 128 µg/mL (≈ 261 µM); in the test with Escherichia coli [8] it was 0.5 µg/mL (≈ 1.02 µM); in test [9], above 128 µg/mL; in the test with Citrobacter freundii it was 8 µg/mL (≈ 16.3 µM); against Staphylococcus aureus [10], 0.25 µg/mL (≈ 0.511 µM). Besides, the MIC against Enterobacter cloacae was 4 µg/mL (≈ 8.17 µM); with Pseudomonas aeruginosa [11], 64 µg/mL (≈ 131 µM). Moreover, the ED50 in the test on Mus musculus [3] was found to be 13 mg/kg; in the test listed under Mus musculus [4], 24 mg/kg.
As for `C[C@@H](N)C(=O)NC[C@@H]1C[C@@H](SC2=C(C(=O)O)N3C(=O)[C@H]([C@@H](C)O)C3[C@H]2C)CO1` (some centres undefined), the MIC with Enterococcus faecium is above 128 µg/mL; against Escherichia coli [1], below 0.06 µg/mL; in test [2] (setting [24]), 8 µg/mL (≈ 19.3 µM); in the test on Enterococcus faecalis, 4 µg/mL (≈ 9.67 µM); in the test with Staphylococcus aureus [5], 4 µg/mL (≈ 9.67 µM); with Morganella morganii, 1 µg/mL (≈ 2.42 µM). The MIC is 0.12 µg/mL (≈ 0.29 µM) with Escherichia coli [6]; 64 µg/mL (≈ 155 µM) with Pseudomonas aeruginosa [7]; 0.12 µg/mL (≈ 0.29 µM) with Escherichia coli [8]; above 128 µg/mL in [9]; 0.5 µg/mL (≈ 1.21 µM) in the test on Citrobacter freundii; below 0.06 µg/mL in the test with Staphylococcus aureus [10]. Moreover, the figures for the MIC against Enterobacter cloacae and in the test with Pseudomonas aeruginosa [11] were 0.12 µg/mL (≈ 0.29 µM) and 32 µg/mL (≈ 77.4 µM), respectively. The Ratio in test [12] stood at 14. The ED50 was determined as 0.06 mg/kg with Mus musculus [13] and 0.83 mg/kg in the test with Mus musculus [14].
Turning to `C[C@@H](N)C(=O)NC[C@@H]1C[C@H](SC2=C(C(=O)O)N3C(=O)[C@H]([C@@H](C)O)C3[C@H]2C)CO1` (some centres undefined), the MIC is above 128 µg/mL in the test on Enterococcus faecium; below 0.06 µg/mL in the test on Escherichia coli [1]; 8 µg/mL (≈ 19.3 µM) in test [2] (setting [24]); 4 µg/mL (≈ 9.67 µM) in the test with Enterococcus faecalis; 8 µg/mL (≈ 19.3 µM) in the test with Staphylococcus aureus [5]; 1 µg/mL (≈ 2.42 µM) in the test with Morganella morganii. The MIC against Escherichia coli [6] is 0.12 µg/mL (≈ 0.29 µM); with Pseudomonas aeruginosa [7], 64 µg/mL (≈ 155 µM); in the test on Escherichia coli [8], 0.06 µg/mL (≈ 0.145 µM); in test [9] it was above 128 µg/mL; with Citrobacter freundii, 1 µg/mL (≈ 2.42 µM); against Staphylococcus aureus [10], below 0.06 µg/mL. The results for the MIC in the test on Enterobacter cloacae and with Pseudomonas aeruginosa [11] were 0.25 µg/mL (≈ 0.605 µM) and 32 µg/mL (≈ 77.4 µM), respectively. For the same molecule, the Ratio in test [12] amounted to 8.3. Besides, the values for the ED50 with Mus musculus [14] and in the test on Mus musculus [15] were 0.83 mg/kg and 0.1 mg/kg, respectively.
For the molecule `C[C@H](N)C(=O)NC[C@H]1OCC[C@H]1SC1=C(C(=O)O)N2C(=O)[C@H]([C@@H](C)O)C2[C@H]1C` (some centres undefined), the minimal inhibitory concentration (MIC) in the test with Enterococcus faecium is above 128 µg/mL; with Escherichia coli [1] it was below 0.06 µg/mL; in test [2] (setting [24]) it was 8 µg/mL (≈ 19.3 µM); in the test on Enterococcus faecalis, 2 µg/mL (≈ 4.84 µM); in the test with Staphylococcus aureus [5], 8 µg/mL (≈ 19.3 µM); in the test on Morganella morganii, 1 µg/mL (≈ 2.42 µM). The minimal inhibitory concentration (MIC) against Escherichia coli [6] was below 0.06 µg/mL; in the test on Pseudomonas aeruginosa [7], 64 µg/mL (≈ 155 µM); in the test on Escherichia coli [8] it was 0.12 µg/mL (≈ 0.29 µM); in [9] it was above 128 µg/mL; in the test with Citrobacter freundii, 1 µg/mL (≈ 2.42 µM); in the test with Staphylococcus aureus [10], below 0.06 µg/mL. Moreover, the minimum inhibitory concentration (MIC) against Enterobacter cloacae is 0.25 µg/mL (≈ 0.605 µM); in the test with Pseudomonas aeruginosa [11] it was 64 µg/mL (≈ 155 µM). Also, the ED50 with Mus musculus [16] stood at 0.42 mg/kg; in the test on Mus musculus [17], 6.6 mg/kg. Moreover, the Ratio in [18] is given as above 16.
Take `C[C@H]1C(S[C@H]2COC[C@H]2CN)=C(C(=O)O)N2C(=O)[C@H]([C@@H](C)O)C12` (some centres undefined): the MIC was 128 µg/mL (≈ 374 µM) in the test with Enterococcus faecium; below 0.06 µg/mL against Escherichia coli [1]; 2 µg/mL (≈ 5.84 µM) in test [2] (setting [24]); 2 µg/mL (≈ 5.84 µM) with Enterococcus faecalis; 4 µg/mL (≈ 11.7 µM) in the test on Staphylococcus aureus [5]; 2 µg/mL (≈ 5.84 µM) in the test on Morganella morganii. The minimum inhibitory concentration (MIC) is 0.12 µg/mL (≈ 0.35 µM) in the test with Escherichia coli [6]; 32 µg/mL (≈ 93.5 µM) in the test with Pseudomonas aeruginosa [7]; below 0.06 µg/mL in the test on Escherichia coli [8]; above 128 µg/mL in [9]; 0.25 µg/mL (≈ 0.73 µM) in the test with Citrobacter freundii; below 0.06 µg/mL against Staphylococcus aureus [10]. In addition, the values for the minimal inhibitory concentration (MIC) against Enterobacter cloacae and with Pseudomonas aeruginosa [11] were below 0.06 µg/mL and 16 µg/mL (≈ 46.7 µM), respectively. Also, the ED50 with Mus musculus [19] was determined as 0.5 mg/kg; with Mus musculus [20], 4 mg/kg; in the test on Mus musculus [21], 0.12 mg/kg. For the same molecule, the Ratio in [12] was found to be 33.
With `C[C@H]1C(SC2COC(CN)C2)=C(C(=O)O)N2C(=O)[C@H]([C@@H](C)O)C12` (stereo in doubt; trans), the MIC in the test on Enterococcus faecium was 128 µg/mL (≈ 374 µM); against Escherichia coli [1] it was below 0.06 µg/mL; in test [2] it was 1 µg/mL (≈ 2.92 µM); in the test with Enterococcus faecalis it was 2 µg/mL (≈ 5.84 µM); in the test with Staphylococcus aureus [5] it was 8 µg/mL (≈ 23.4 µM); in the test with Morganella morganii, 0.25 µg/mL (≈ 0.73 µM). The minimum inhibitory concentration (MIC) against Escherichia coli [6] is below 0.06 µg/mL; in the test on Pseudomonas aeruginosa [7] it was 8 µg/mL (≈ 23.4 µM); with Escherichia coli [8], 0.06 µg/mL (≈ 0.175 µM); in test [9], above 128 µg/mL; in the test on Citrobacter freundii, 0.06 µg/mL (≈ 0.175 µM); in the test with Staphylococcus aureus [10], below 0.06 µg/mL. In addition, the minimal inhibitory concentration (MIC) was below 0.06 µg/mL with Enterobacter cloacae and 4 µg/mL (≈ 11.7 µM) in the test on Pseudomonas aeruginosa [11]. Moreover, the ED50 was determined as 3.7 mg/kg in the test listed under Mus musculus [4], 1.7 mg/kg in the test on Mus musculus [17], 0.11 mg/kg in the test on Mus musculus [22] and 0.27 mg/kg in the test filed under Mus musculus [23]. For the same molecule, in test [12], the Ratio stood at 16.

The record behind these values is ChEMBL document CHEMBL1130465, “Peptidic prodrugs of novel aminomethyl-THF 1-methylcarbapenems” (1997).
